Source: patent publication US12390467B2, “Necroptosis inducers or autophagy inhibitors or a combination thereof” (The University of Toledo, priority 2018, dated 2025)
Read-outs that look alike come from different tables or passages of the source.

What was measured:
MDA-MB468 and MDA-MB231 = assay: Cell cycle analysis (PI, flow cytometry); assay type: cell-based; settings: 0.5, 1, 2 μM, 12 h
Protocol: The cell cycle analysis was performed to evaluate the effect of TPH104 on the normal cell cycle in the TNBC cell lines (i.e. MDA-MB 468, MDA-MB231 and BT-20). Cells were plated in a 6-well plate at a suitable density as previously described and incubated overnight to allow for cell attachment. The following day, cells were incubated with different TPH104 concentrations (0.5, 1, or 2 μM) or vehicle for 12 h. The cells were harvested by trypsinization and collected in individual test tubes. Subsequently, cells were washed 3× with ice cold PBS and fixed with 70% ethanol for 30 minutes. Following fixation, cells were again washed 3× with intermittent centrifugation at 2000 rpm for 5 minutes and incubated with 100 μl RNAse (from a 100 μg/ml stock) (to ensure that only DNA was stained). Two hundred μl of PI (from a 50 μg/ml stock solution) was added to each test tube and cells were stain cells for at least 15 minutes on ice. Finally, a FACS Calibur flow cytometer (BD Biosciences, San Jose, CA) was used to detect the distribution of the cells following incubation with vehicle or TPH104. FlowJo v10.2 software from FlowJo LLC (Ashland, OR) was used for data analysis.

[1] = test system: MCF-7 (non-TNBC cell line); assay: MTT cell viability assay, MCF-7; assay type: cell-based; settings: read-out: IC50 ± SD, MCF-7
Protocol: The following cancer and non-cancer cell lines were used in the initial cytotoxicity screening of the TPH104 compounds: triple negative breast cancer (TNBC): MDA-MB468, MDA-MB 231, and BT-20; non-TNBC: MCF-7 and ZR-75-1; ovarian: Ov2008; prostate: DU145; colon: HCT-116, S1, and LOVO; lung: H460; normal kidney: HEK-293; normal breast: HMEC; and normal colon: CRL-1459. All cells were cultured in Dulbecco's modified Eagle medium (DMEM), supplemented with 10% fetal bovine serum (FBS), and 1% penicillin/streptomycin (P/S). Cells were allowed to grow as adherent monolayers in T25 flasks in a humidified incubator with 5% CO2 at 37° C. for a period of 24 h, unless otherwise specified for certain experiments.
The MTT assay was used to determine the cytotoxicity of all of the compounds. Briefly, in a 96-well flat-bottom cell culture plate, the cells were seeded at a density between 3-5×10^3 cells/well (180 μl in each well) and incubated for 24 h (a hemocytometer was used for cell counting). The next day, the cells were incubated with different concentrations of the nine compounds (0, 0.1, 0.3, 1, 3, 10, 30, and 100 μM) for 72 h. After 72 h, 20 μl of 5 mg/ml of 3-(4,5-dimethylthiazol-2-yl)-2,5-diphenyltetrazolium bromide (MTT) was added to the plate and incubated with the cells for 3 h at 37° C. In this experiment, the living cells will reduce the soluble MTT dye to non-soluble purple formazan crystals. Following incubation, the media containing MTT removed via suction and 100 μL of 100% dimethyl sulfoxide (DMSO) was added to dissolve the formazan crystals. Subsequently, the plate was shaken for 2 minutes and the absorbance was measured at a wavelength of 570 nm using a SpectraMax iD3 Multi-Mode Microplate Reader (Molecular Devices, Sunnyvale, CA). The IC50 values of each compound were calculated and used to determine the selectivity ratio (IC50 in normal cells/IC50 in cancer cells) of each compound as previously described. Based on the results obtained from these experiments, the compound TPH104, which had the lowest IC50 value, was selected for further experiments.

## COc1ccc(O)c(/C=N/Nc2ncnc3scc(-c4ccc(C)cc4)c23)c1 [TPH104]
MDA-MB468 and MDA-MB231
  level of cells arrested in the S phase: significantly increased
  number of cells in the G1 phase: significant reduction
[1]; 72 h
  IC50: 3.84 ± 1.36 µM
[1]; Homo sapiens, MCF7, 72 h
  IC50: 3.8 µM
